Test results published in the supplement of paper PMC13380429.

Tests used:
[1] = tested on: HepG2; assay: drug sensitivity score (DSS) for viability; higher = more toxic; extreme values may be limits of the assay; settings: 72 h
[2] = tested on: Vero E6; assay: as above; settings: 72 h
[3] = tested on: Calu-3; assay: as above; settings: 72 h
[4] = tested on: U2OS; assay: as above; settings: 72 h
[5] = tested on: Caco-2; assay: as above; settings: 72 h
[6] = tested on: A549-ACE2 infected with SARS-CoV-2; assay: cell count relative to DMSO; higher = less toxic; settings: 24 h
[7] = tested on: A549-ACE2; assay: drug-induced phospholipidosis relative to tamoxifen; higher = more phospholipidosis
[8] = tested on: HepG2; assay: cell viability relative to DMSO; higher = less toxic; settings: 72 h
[9] = tested on: Vero E6; assay: as above; settings: 72 h
[10] = tested on: Calu-3; assay: as above; settings: 72 h
[11] = tested on: U2OS; assay: as above; settings: 72 h
[12] = tested on: Caco-2; assay: as above; settings: 72 h
[13] = tested on: A549-ACE2 infected with SARS-CoV-2; assay: SARS-CoV-2 infection rate relative to DMSO; higher = more infection; settings: 24 h
[14] = tested on: A549-ACE2; assay: phospholipidosis EC50; higher = less potent phospholipidosis inducer
[15] = tested on: Vero E6; assay: relative viability EC50 (midpoint between 100% and the lowest measured viability); higher = less toxic; settings: 72 h
[16] = tested on: Calu-3; assay: as above; settings: 72 h
[17] = tested on: A549-ACE2 infected with SARS-CoV-2; assay: morphology score (similarity to uninfected cells); higher = more like uninfected cells; settings: 24 h
[18] = tested on: HepG2; assay: relative viability EC50 (midpoint between 100% and the lowest measured viability); higher = less toxic; settings: 72 h

O=C(NCCN1CCC2(CC1)C(=O)NCN2c1cccc(F)c1)c1ccc2ccccc2c1
Settings | drug sensitivity score | relative viability EC50 [nM]
[1] | 4.4 | –
[2] | 0.5 | –
[3] | 5.7 | –
[4] | 1.2 | –
[5] | 4 | –
[15] | – | > 10000
[16] | – | 2720

Settings | SARS-CoV-2 infection rate [%] | cell count [%] | cell viability [%] | morphology score | phospholipidosis EC50 [nM]
[6], 0.3 µM | – | 96 | – | – | –
[6], 3 µM | – | 115 | – | – | –
[6], 10 µM | – | 93 | – | – | –
[6], 30 µM | – | 3 | – | – | –
[8], 1 nM | – | – | 104 | – | –
[8], 10 nM | – | – | 106 | – | –
[8], 100 nM | – | – | 102 | – | –
[8], 1000 nM | – | – | 85.9 | – | –
[8], 10000 nM | – | – | 54.5 | – | –
[9], 1 nM | – | – | 103 | – | –
[9], 10 nM | – | – | 95.6 | – | –
[9], 100 nM | – | – | 97.4 | – | –
[9], 1000 nM | – | – | 96.4 | – | –
[9], 10000 nM | – | – | 84.8 | – | –
[10], 1 nM | – | – | 100 | – | –
[10], 10 nM | – | – | 102 | – | –
[10], 100 nM | – | – | 94.8 | – | –
[10], 1000 nM | – | – | 95 | – | –
[10], 10000 nM | – | – | 11.2 | – | –
[11], 1 nM | – | – | 101 | – | –
[11], 10 nM | – | – | 104 | – | –
[11], 100 nM | – | – | 97.7 | – | –
[11], 1000 nM | – | – | 100 | – | –
[11], 10000 nM | – | – | 71 | – | –
[12], 1 nM | – | – | 102 | – | –
[12], 10 nM | – | – | 93.5 | – | –
[12], 100 nM | – | – | 95.2 | – | –
[12], 1000 nM | – | – | 90.8 | – | –
[12], 10000 nM | – | – | 52.4 | – | –
[13], 0.3 µM | 107 | – | – | – | –
[13], 3 µM | 35 | – | – | – | –
[13], 10 µM | 20 | – | – | – | –
[13], 30 µM | 48 | – | – | – | –
[14], 24 h | – | – | – | – | 2210
[14], 48 h | – | – | – | – | 3210
[14], 72 h | – | – | – | – | 4550
[17], 0.3 µM | – | – | – | -0.21 | –
[17], 3 µM | – | – | – | 0.7 | –
[17], 10 µM | – | – | – | 0.39 | –
[17], 30 µM | – | – | – | 0.06 | –

drug-induced phospholipidosis [%], [7]
Settings | 0.3 µM | 0.833333 µM | 3.33333 µM | 6.66667 µM | 10 µM | 30 µM
24 h | 1.19 | 9.12 | 93.1 | 112 | 127 | 127
48 h | 2.88 | 7.95 | 76.2 | 107 | 140 | 134
72 h | 2.25 | 6.48 | 52.3 | 100 | 120 | –

Oc1ccc2c(c1)CC[C@H](c1ccccc1)[C@@H]2c1ccc(OCCN2CCCC2)cc1 [lasofoxifene]
Settings | drug sensitivity score | relative viability EC50 [nM]
[1] | 5 | –
[2] | 1.8 | –
[3] | 5.9 | –
[4] | 2.2 | –
[5] | 2 | –
[16] | – | 2840
[18] | – | 2460

Settings | SARS-CoV-2 infection rate [%] | cell count [%] | cell viability [%] | morphology score | phospholipidosis EC50 [nM]
[6], 0.1 µM | – | 105 | – | – | –
[6], 0.3 µM | – | 102 | – | – | –
[6], 1 µM | – | 106 | – | – | –
[6], 3 µM | – | 120 | – | – | –
[8], 1 nM | – | – | 93.4 | – | –
[8], 10 nM | – | – | 97.3 | – | –
[8], 100 nM | – | – | 106 | – | –
[8], 1000 nM | – | – | 93.8 | – | –
[8], 10000 nM | – | – | 27.6 | – | –
[9], 1 nM | – | – | 99.5 | – | –
[9], 10 nM | – | – | 103 | – | –
[9], 100 nM | – | – | 103 | – | –
[9], 1000 nM | – | – | 102 | – | –
[9], 10000 nM | – | – | 61.2 | – | –
[10], 1 nM | – | – | 88.7 | – | –
[10], 10 nM | – | – | 96.6 | – | –
[10], 100 nM | – | – | 97.6 | – | –
[10], 1000 nM | – | – | 95.9 | – | –
[10], 10000 nM | – | – | 3.8 | – | –
[11], 1 nM | – | – | 105 | – | –
[11], 10 nM | – | – | 99.3 | – | –
[11], 100 nM | – | – | 102 | – | –
[11], 1000 nM | – | – | 95 | – | –
[11], 10000 nM | – | – | 69.3 | – | –
[12], 1 nM | – | – | 101 | – | –
[12], 10 nM | – | – | 106 | – | –
[12], 100 nM | – | – | 97.5 | – | –
[12], 1000 nM | – | – | 100 | – | –
[12], 10000 nM | – | – | 60.1 | – | –
[13], 0.1 µM | 98 | – | – | – | –
[13], 0.3 µM | 95 | – | – | – | –
[13], 1 µM | 78 | – | – | – | –
[13], 3 µM | 40 | – | – | – | –
[14], 24 h | – | – | – | – | 2320
[14], 48 h | – | – | – | – | 2820
[14], 72 h | – | – | – | – | 3000
[17], 0.1 µM | – | – | – | 0.1 | –
[17], 0.3 µM | – | – | – | 0.07 | –
[17], 1 µM | – | – | – | 0.48 | –
[17], 3 µM | – | – | – | 0.72 | –

drug-induced phospholipidosis [%], [7]
Settings | 0.3 µM | 0.833333 µM | 3.33333 µM | 6.66667 µM | 10 µM
24 h | 8.45 | 22 | 81.6 | 102 | 112
48 h | 7.62 | 12.5 | 79.3 | 91.7 | 119
72 h | 6.02 | 12 | 69 | 83.8 | 120
